#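 1) Cells in 96-well plates. 2) Compound, 48 h, 5 concentrations. 3) Linear interpolation between surrounding doses. 4) Unreached endpoint = highest concentration. Here, GI50 denotes the concentration required for 50% inhibition of growth.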 Activity calls are given as the source filed them. Rule as the data show it: active = GI50 up to about 1.1 µM and inactive = higher.
# Legend:
# Assay in all cases: growth of human tumour cells (NCI), 48 h
# HOP-92 = tested on: HOP-92
# A549 = tested on: A549
# MOLT-4 = tested on: MOLT-4
# UO-31 = tested on: UO-31
# NCI/ADR-RES = tested on: NCI/ADR-RES
# MDA-MB-231 = tested on: MDA-MB-231
# IGROV-1 = tested on: IGROV-1
# LOX IMVI = tested on: LOX IMVI
# HOP-62 = tested on: HOP-62
# HCT-15 = tested on: HCT-15
# RPMI-8226 = tested on: RPMI-8226
# OVCAR-4 = tested on: OVCAR-4
# HL-60 = tested on: HL-60
# M14 = tested on: M14
# MDA-N = tested on: MDA-N
# CCRF-CEM = tested on: CCRF-CEM
# NCI-H460 = tested on: NCI-H460
# TK-10 = tested on: TK-10
# SW-620 = tested on: SW-620
# OVCAR-3 = tested on: OVCAR-3
# T47D = tested on: T47D
# SF-295 = tested on: SF-295
# U-251 = tested on: U-251
# COLO 205 = tested on: COLO 205
# RXF 393 = tested on: RXF 393
# NCI-H522 = tested on: NCI-H522
# HCT-116 = tested on: HCT-116
# SN12C = tested on: SN12C
# BT-549 = tested on: BT-549
# PC-3 = tested on: PC-3
# DU-145 = tested on: DU-145
# SK-OV-3 = tested on: SK-OV-3
# K562 = tested on: K562
# UACC-257 = tested on: UACC-257
# SF-539 = tested on: SF-539
# SR = tested on: SR
# MDA-MB-435 = tested on: MDA-MB-435
# HCC 2998 = tested on: HCC 2998
# SK-MEL-5 = tested on: SK-MEL-5
# OVCAR-5 = tested on: OVCAR-5
# 786-0 = tested on: 786-0
# UACC-62 = tested on: UACC-62
# HT-29 = tested on: HT-29
# SK-MEL-28 = tested on: SK-MEL-28
# OVCAR-8 = tested on: OVCAR-8
# MCF7 = tested on: MCF7
# SNB-19 = tested on: SNB-19
# NCI-H23 = tested on: NCI-H23
# SF-268 = tested on: SF-268
# KM12 = tested on: KM12
# A498 = tested on: A498
# SNB-75 = tested on: SNB-75
# NCI-H226 = tested on: NCI-H226
# EKVX = tested on: EKVX
# SK-MEL-2 = tested on: SK-MEL-2
# CAKI-1 = tested on: CAKI-1
# ACHN = tested on: ACHN
# Malme-3M = tested on: Malme-3M
# Hs-578T = tested on: Hs-578T
compound,measurement,setting,value
COc1cccc(-c2nc(-c3cnccn3)n(COCCO)n2)c1,GI50,HOP-92,> 100 µM (inactive)
same,GI50,A549,> 100 µM (inactive)
same,GI50,MOLT-4,> 100 µM (inactive)
same,GI50,UO-31,> 100 µM (inactive)
same,GI50,NCI/ADR-RES,> 100 µM (inactive)
same,GI50,MDA-MB-231,> 100 µM (inactive)
same,GI50,IGROV-1,> 100 µM (inactive)
same,GI50,LOX IMVI,> 100 µM (inactive)
same,GI50,HOP-62,> 100 µM (inactive)
same,GI50,HCT-15,> 100 µM
same,GI50,RPMI-8226,> 100 µM (inactive)
same,GI50,OVCAR-4,> 100 µM (inactive)
same,GI50,HL-60,> 100 µM (inactive)
same,GI50,M14,> 100 µM (inactive)
same,GI50,MDA-N,> 100 µM (inactive)
same,GI50,CCRF-CEM,> 100 µM (inactive)
same,GI50,NCI-H460,> 100 µM (inactive)
same,GI50,TK-10,> 100 µM (inactive)
same,GI50,SW-620,> 100 µM (inactive)
same,GI50,OVCAR-3,> 100 µM (inactive)
same,GI50,T47D,> 100 µM (inactive)
same,GI50,SF-295,> 100 µM (inactive)
same,GI50,U-251,> 100 µM (inactive)
same,GI50,COLO 205,> 100 µM (inactive)
same,GI50,RXF 393,> 100 µM (inactive)
same,GI50,NCI-H522,> 100 µM (inactive)
same,GI50,HCT-116,> 100 µM (inactive)
same,GI50,SN12C,> 100 µM (inactive)
same,GI50,BT-549,> 100 µM (inactive)
same,GI50,PC-3,> 100 µM (inactive)
same,GI50,DU-145,> 100 µM (inactive)
same,GI50,SK-OV-3,> 100 µM (inactive)
same,GI50,K562,> 100 µM (inactive)
same,GI50,UACC-257,> 100 µM (inactive)
same,GI50,SF-539,> 100 µM (inactive)
same,GI50,SR,> 100 µM (inactive)
same,GI50,MDA-MB-435,> 100 µM (inactive)
same,GI50,HCC 2998,> 100 µM (inactive)
same,GI50,SK-MEL-5,> 100 µM (inactive)
same,GI50,OVCAR-5,> 100 µM (inactive)
same,GI50,786-0,> 100 µM (inactive)
same,GI50,UACC-62,> 100 µM (inactive)
same,GI50,HT-29,> 100 µM (inactive)
same,GI50,SK-MEL-28,> 100 µM (inactive)
same,GI50,OVCAR-8,> 100 µM (inactive)
same,GI50,MCF7,> 100 µM (inactive)
same,GI50,SNB-19,> 100 µM (inactive)
same,GI50,NCI-H23,> 100 µM (inactive)
same,GI50,SF-268,> 100 µM (inactive)
same,GI50,KM12,> 100 µM (inactive)
N[C@@H]1C[C@H](N)c2c(Cl)sc(Cl)c21,GI50,HOP-92,> 100 µM (inactive)
same,GI50,A549,> 100 µM (inactive)
same,GI50,MOLT-4,> 100 µM (inactive)
same,GI50,UO-31,> 100 µM (inactive)
same,GI50,A498,61.5 µM (inactive)
same,GI50,NCI/ADR-RES,> 100 µM (inactive)
same,GI50,SNB-75,> 100 µM (inactive)
same,GI50,MDA-MB-231,> 100 µM (inactive)
same,GI50,NCI-H226,> 100 µM (inactive)
same,GI50,IGROV-1,> 100 µM (inactive)
same,GI50,LOX IMVI,> 100 µM (inactive)
same,GI50,HOP-62,> 100 µM (inactive)
same,GI50,HCT-15,> 100 µM
same,GI50,EKVX,> 100 µM (inactive)
same,GI50,RPMI-8226,> 100 µM (inactive)
same,GI50,OVCAR-4,> 100 µM (inactive)
same,GI50,SK-MEL-2,> 100 µM (inactive)
same,GI50,CAKI-1,> 100 µM (inactive)
same,GI50,M14,> 100 µM (inactive)
same,GI50,MDA-N,> 100 µM (inactive)
same,GI50,CCRF-CEM,> 100 µM (inactive)
same,GI50,NCI-H460,> 100 µM (inactive)
same,GI50,SW-620,> 100 µM (inactive)
same,GI50,OVCAR-3,> 100 µM (inactive)
same,GI50,ACHN,> 100 µM (inactive)
same,GI50,T47D,> 100 µM (inactive)
same,GI50,SF-295,> 100 µM (inactive)
same,GI50,U-251,> 100 µM (inactive)
same,GI50,COLO 205,> 100 µM (inactive)
same,GI50,RXF 393,> 100 µM (inactive)
same,GI50,HCT-116,> 100 µM (inactive)
same,GI50,SN12C,> 100 µM (inactive)
same,GI50,BT-549,> 100 µM (inactive)
same,GI50,PC-3,> 100 µM (inactive)
same,GI50,DU-145,> 100 µM (inactive)
same,GI50,K562,> 100 µM (inactive)
same,GI50,UACC-257,> 100 µM (inactive)
same,GI50,SF-539,> 100 µM (inactive)
same,GI50,SR,> 100 µM (inactive)
same,GI50,MDA-MB-435,> 100 µM (inactive)
same,GI50,HCC 2998,> 100 µM (inactive)
same,GI50,SK-MEL-5,> 100 µM (inactive)
same,GI50,OVCAR-5,> 100 µM (inactive)
same,GI50,786-0,> 100 µM (inactive)
same,GI50,UACC-62,> 100 µM (inactive)
same,GI50,SK-MEL-28,> 100 µM (inactive)
same,GI50,OVCAR-8,> 100 µM (inactive)
same,GI50,MCF7,> 100 µM (inactive)
same,GI50,SNB-19,> 100 µM (inactive)
same,GI50,NCI-H23,> 100 µM (inactive)
same,GI50,KM12,> 100 µM (inactive)
COc1cc2nc(-c3cccs3)nc(Nc3ccccc3C(=O)NN)c2cc1OC,GI50,HOP-92,21.6 µM (inactive)
same,GI50,A549,> 100 µM (inactive)
same,GI50,MOLT-4,> 100 µM (inactive)
same,GI50,UO-31,> 100 µM (inactive)
same,GI50,A498,> 100 µM (inactive)
same,GI50,NCI/ADR-RES,> 100 µM (inactive)
same,GI50,SNB-75,> 100 µM (inactive)
same,GI50,MDA-MB-231,> 100 µM (inactive)
same,GI50,NCI-H226,> 100 µM (inactive)
same,GI50,IGROV-1,> 100 µM (inactive)
same,GI50,LOX IMVI,51.5 µM (inactive)
same,GI50,HOP-62,> 100 µM (inactive)
same,GI50,HCT-15,> 100 µM
same,GI50,EKVX,> 100 µM (inactive)
same,GI50,RPMI-8226,> 100 µM (inactive)
same,GI50,OVCAR-4,27.8 µM (inactive)
same,GI50,SK-MEL-2,> 100 µM (inactive)
same,GI50,CAKI-1,> 100 µM (inactive)
same,GI50,HL-60,44.9 µM (inactive)
same,GI50,M14,> 100 µM (inactive)
same,GI50,CCRF-CEM,> 100 µM (inactive)
same,GI50,NCI-H460,> 100 µM (inactive)
same,GI50,Malme-3M,> 100 µM (inactive)
same,GI50,TK-10,> 100 µM (inactive)
same,GI50,SW-620,> 100 µM (inactive)
same,GI50,OVCAR-3,57.5 µM (inactive)
same,GI50,ACHN,> 100 µM (inactive)
same,GI50,T47D,> 100 µM (inactive)
same,GI50,SF-295,66.8 µM (inactive)
same,GI50,U-251,96.2 µM (inactive)
same,GI50,COLO 205,67.3 µM (inactive)
same,GI50,NCI-H522,> 100 µM (inactive)
same,GI50,HCT-116,> 100 µM (inactive)
same,GI50,SN12C,> 100 µM (inactive)
same,GI50,BT-549,> 100 µM (inactive)
same,GI50,PC-3,> 100 µM (inactive)
same,GI50,DU-145,> 100 µM (inactive)
same,GI50,SK-OV-3,> 100 µM (inactive)
same,GI50,K562,97.5 µM (inactive)
same,GI50,UACC-257,> 100 µM (inactive)
same,GI50,SF-539,> 100 µM (inactive)
same,GI50,SR,23.6 µM (inactive)
same,GI50,MDA-MB-435,95.7 µM (inactive)
same,GI50,HCC 2998,> 100 µM (inactive)
same,GI50,SK-MEL-5,> 100 µM (inactive)
same,GI50,OVCAR-5,> 100 µM (inactive)
same,GI50,786-0,95.7 µM (inactive)
same,GI50,UACC-62,> 100 µM (inactive)
same,GI50,HT-29,> 100 µM (inactive)
same,GI50,SK-MEL-28,99.8 µM (inactive)
same,GI50,OVCAR-8,> 100 µM (inactive)
same,GI50,MCF7,> 100 µM (inactive)
same,GI50,SNB-19,> 100 µM (inactive)
same,GI50,NCI-H23,> 100 µM (inactive)
same,GI50,SF-268,> 100 µM (inactive)
same,GI50,KM12,> 100 µM (inactive)
same,GI50,Hs-578T,> 100 µM (inactive)

# Reference: ChEMBL document CHEMBL1201862, “PubChem BioAssay data set” (2004)
